Patent publication EP2951180B1, “2,6,7,8 SUBSTITUTED PURINES AS HDM2 INHIBITORS” (Merck Sharp & Dohme Corp., priority 2013, dated 2014)

molecular target: T1, HDM2 (Homo sapiens, UniProt Q00987); test: HDM2 FRET assay (inhibition of binding of FITC labeled p53-pocket peptide to HDM2); settings: 0.5 nM HDM2 (residues 17 to 125), 3nM peptide, two hour incubation at room temperature; read-out: FRET IC50
T1 construct: Thioredoxin (N); made in house; host or cells: E. coli strain BL21(DE3)Rosetta
Summary of the method: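 Compounds were tested in 10-point serial dilution against 0.5 nM recombinant HDM2 binding 3 nM fluorescein-labeled p53-pocket peptide. Detection used 0.25 nM terbium cryptate anti-6xHis antibody in PBS buffer containing 0.01% BSA and 0.01% Tween-20.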

T1 sequence (Q00987 17-125): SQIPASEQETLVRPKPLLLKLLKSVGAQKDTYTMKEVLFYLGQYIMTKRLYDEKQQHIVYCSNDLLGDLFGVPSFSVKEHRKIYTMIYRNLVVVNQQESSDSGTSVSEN

`CC[S+]([O-])c1nc(N[C@H](C)C2CCC2)c2c(n1)nc(N1CCOC[C@H]1c1ccccc1)n2C[C@H]1CC[C@H](C)CC1` (stereo partly drawn) [Example 14.7, N-[(1R)-1-cyclobutylethyl]-2-(ethylsulfinyl)-7-[(trans-4-methylcyclohexyl)methyl]-8-[(3R)-3-phenylmorpholin-4-yl]-7H-purin-6-amine] and `CC(C)[S+]([O-])c1nc(N[C@H](C)C2CCC2)c2c(n1)nc(N1CCOC[C@H]1c1ccccc1)n2C[C@H]1CC[C@H](C)CC1` (stereo partly drawn) [Example 14.8, N-[(1R)-1-cyclobutylethyl]-7-[(trans-4-methylcyclohexyl)methyl]-2-[(1-methylethyl)sulfinyl]-8-[(3R)-3-phenylmorpholin-4-yl]-7H-purin-6-amine] are within 1.5-fold of each other in IC50: 12.2 nM for the first, 15.5 nM for the second.

First: C[C@@H](Nc1nc(S(=O)(=O)CC(F)(F)F)nc2nc(N3CCOC[C@H]3c3ccccc3)n(C[C@H]3CC[C@H](C)CC3)c12)C1CCC1 [Example 14.15, N-[(1R)-1-cyclobutylethyl]-7-[(trans-4-methylcyclohexyl)methyl]-8-[(3R)-3-phenylmorpholin-4-yl]-2-[(2,2,2-trifluoroethyl)sulfonyl]-7H-purin-6-amine]
Second: C[C@@H](Nc1nc(S(=O)(=O)CCO)nc2nc(N3CCOC[C@H]3c3ccccc3)n(C[C@H]3CC[C@H](C)CC3)c12)C1CCC1 [Example 14.18, 2-[(6-{[(1R)-1-cyclobutylethyl]amino} -7-[(trans-4-methylcyclohexyl)methyl]-8-[(3R)-3-phenylmorpholin-4-yl]-7H-purin-2-yl)sulfonyl]ethanol]
The IC50 of the first is 32-fold higher: 220 nM for the first, 6.94 nM for the second. The second is the more potent here.

`CC(C)c1ccnc(-c2nc3nc(C(=O)O)nc(N[C@H](C)C4CCC4)c3n2C[C@H]2CC[C@H](C)CC2)c1` [Example 15.1, 6-(((R)-1-cyclobutylethyl)amino)-8-(4-isopropylpyridin-2-yl)-7-((trans-4-methylcyclohexyl)methyl)-7H-purine-2-carboxylic acid] and `C[C@@H](Nc1nc(C(=O)O)nc2nc(-c3cc(C(C)(C)C)ccn3)n(C[C@H]3CC[C@H](C)CC3)c12)C1CCC1` [Example 15.16, 8-(4-tert-butylpyridin-2-yl)-6-{[(1R)-1-cyclobutylethyl]amino}-7-[(trans-4-methylcyclohexyl)methyl]-7H-purine-2-carboxylic acid] are within 1.5-fold of each other in IC50: 1.3 nM for the first, 1.04 nM for the second.

Compared with `CC(C)c1ccnc(-c2nc3nc(C(=O)O)nc(N(C)[C@H](C)C4CCC4)c3n2C[C@H]2CC[C@H](C)CC2)c1` [Example 15.2, 6-(((R)-1-cyclobutylethyl)(methyl)amino)-8-(4-isopropylpyridin-2-yl)-7-((trans-4-methylcyclohexyl)methyl)-7H-purine-2-carboxylic acid], `C[C@H](C1CCC1)N(C)c1nc(C(=O)O)nc2nc(-c3cc(C(C)(C)C)ccn3)n(C[C@H]3CC[C@H](C)CC3)c12` [Example 15.20, 8-(4-tert-butylpyridin-2-yl)-6-{[(1R)-1-cyclobutylethyl] (methyl)amino} -7-[(trans-4-methylcyclohexyl)methyl]-7H-purine-2-carboxylic acid] is 1.7-fold higher in IC50: 10.5 nM for the first, 17.9 nM for the second.

First: CC(C)c1cc(-c2nc3nc(C(=O)O)nc(N[C@H](C)C4CCC4)c3n2C[C@H]2CC[C@H](C)CC2)[nH]c(=O)c1 [Example 15.3, 6-(((R)-1-cyclobutylethyl)amino)-8-(4-isopropyl-6-oxo-1,6-dihydropyridin-2-yl)-7-((trans-4-methylcyclohexyl)methyl)-7H-purine-2-carboxylic acid]
Second: CC(C)c1ccnc(-c2nc3nc(C(=O)O)nc(N[C@H](C)C4CCC4)c3n2C[C@H]2CC[C@H](C)CC2)c1 [Example 15.15, 6-{[(1R)-1-cyclobutylethyl]amino}-7-[(trans-4-methylcyclohexyl)methyl]-8-[4-(1-methylethyl)pyridin-2-yl]-7H-purine-2-carboxylic acid]
The IC50 of the first is 6.1-fold higher: 15.5 nM for the first, 2.55 nM for the second.

First: CCOc1cc(C(C)C)cc(-c2nc3nc(C(=O)O)nc(N[C@H](C)C4CCC4)c3n2C[C@H]2CC[C@H](C)CC2)n1 [Example 15.4, 6-(((R)-1-cyclobutylethyl)amino)-8-(6-ethoxy-4-isopropylpyridin-2-yl)-7-((trans-4-methylcyclohexyl)methyl)-7H-purine-2-carboxylic acid]
Second: CC(C)c1cc(-c2nc3nc(C(=O)O)nc(N[C@H](C)C4CCC4)c3n2C[C@H]2CC[C@H](C)CC2)ncc1F [Example 15.8, 6-(((R)-1-cyclobutylethyl)amino)-8-(5-fluoro-4-isopropylpyridin-2-yl)-7-((trans-4-methylcyclohexyl)methyl)-7H-purine-2-carboxylic acid]
The IC50 of the first is 3.9-fold higher: 4.44 nM for the first, 1.14 nM for the second.

First: CC(C)c1cc(F)nc(-c2nc3nc(-c4noc(=O)[nH]4)nc(N[C@H](C)C4CCC4)c3n2C[C@H]2CC[C@H](C)CC2)c1 [Example 15.5, 3-(6-(((R)-1-cyclobutylethyl)amino)-8-(6-fluoro-4-isopropylpyridin-2-yl)-7-((trans-4-methylcyclohexyl)methyl)-7H-purin-2-yl)-1,2,4-oxadiazol-5(2H)-one]
Second: CC(C)c1cc(-c2nc3nc(-c4noc(=O)[nH]4)nc(N[C@H](C)C4CCC4)c3n2C[C@H]2CC[C@H](C)CC2)ncc1F [Example 15.10, 3-(6-(((R)-1-cyclobutylethyl)amino)-8-(5-fluoro-4-isopropylpyridin-2-yl)-7-((trans-4-methylcyclohexyl)methyl)-7H-purin-2-yl)-1,2,4-oxadiazol-5(4H)-one]
The IC50 of the first is 2.8-fold higher: 33.5 nM for the first, 11.8 nM for the second. The second is the more potent here.

`CC(C)c1ccnc(-c2nc3nc(C(=O)O)nc(N[C@H](C)C4CCC4)c3n2C[C@H]2CC[C@H](C)CC2)c1F` [Example 15.6, 6-(((R)-1-Cyclobutylethyl)amino)-8-(3-fluoro-4-isopropylpyridin-2-yl)-7-((trans-4-methylcyclohexyl)methyl)-7H-purine-2-carboxylic acid] and `CC(C)c1ccnc(-c2nc3nc(-c4noc(=O)[nH]4)nc(N[C@H](C)C4CCC4)c3n2C[C@H]2CC[C@H](C)CC2)c1F` [Example 15.7, 3-(6-((R)-1-cyclobutylethylamino)-8-(3-fluoro-4-isopropylpyridin-2-yl)-7-((trans-4-methylcyclohexyl)methyl)-7H-purin-2-yl)-1,2,4-oxadiazol-5(4H)-one] are within 1.5-fold of each other in IC50: 6.02 nM for the first, 5.13 nM for the second.

`C[C@@H](Nc1nc(-c2noc(=O)[nH]2)nc2nc(-c3cc(C(C)(C)O)c(F)cn3)n(C[C@H]3CC[C@H](C)CC3)c12)C1CCC1` [Example 15.9, 3-(6-(((R)-1-cyclobutylethyl)amino)-8-(5-fluoro-4-(2-hydroxypropan-2-yl)pyridin-2-yl)-7-((trans-4-methylcyclohexyl)methyl)-7H-purin-2-yl)-1,2,4-oxadiazol-5(4H)-one] and `C[C@@H](Nc1nc(-c2noc(=O)[nH]2)nc2nc(-c3cc(C(C)(C)O)ccn3)n(C[C@H]3CC[C@H](C)CC3)c12)C1CCC1` [Example 15.23, 3-(6-{[(1R)-1-cyclobutylethyl]amino}-8-[4-(1-hydroxy-1-methylethyl)pyridin-2-yl]-7-[(trans-4-methylcyclohexyl)methyl]-7H-purin-2-yl)-1 ,2,4-oxadiazol-5(4H)-one] are within 1.5-fold of each other in IC50: 3.95 nM for the first, 4.75 nM for the second.

First: C[C@@H](Nc1nc(C(=O)O)nc2nc(-c3nccs3)n(C[C@H]3CC[C@H](C)CC3)c12)C1CCC1 [Example 15.11, 6-(((R)-1-cyclobutylethyl)amino)-7-((trans-4-methylcyclohexyl)methyl)-8-(thiazol-2-yl)-7H-purine-2-carboxylic acid]
Second: Cc1cnc(-c2nc3nc(C(=O)O)nc(N[C@H](C)C4CCC4)c3n2C[C@H]2CC[C@H](C)CC2)cc1C [Example 15.21, 6-{[(1R)-1-cyclobutylethyl]amino}-8-(4,5-dimethylpyridin-2-yl)-7-[(trans-4-methylcyclohexyl)methyl]-7H-purine-2-carboxylic acid]
The IC50 of the first is 3.4-fold lower: 2.45 nM for the first, 8.44 nM for the second.

Going from `C[C@@H](Nc1nc(-c2noc(=O)[nH]2)nc2nc(-c3nccs3)n(C[C@H]3CC[C@H](C)CC3)c12)C1CCC1` [Example 15.12, 3-(6-(((R)-1-cyclobutylethyl)amino)-7-((trans-4-methylcyclohexyl)methyl)-8-(thiazol-2-yl)-7H-purin-2-yl)-1,2,4-oxadiazol-5(4H)-one] to `C[C@@H](Nc1nc(C(=O)O)nc2nc(-c3cc(C4CC4)ccn3)n(C[C@H]3CC[C@H](C)CC3)c12)C1CCC1` [Example 15.17, 6-{[(1R)-1-cyclobutylethyl]amino}-8-(4-cyclopropylpyridin-2-yl)-7-[(trans-4-methylcyclohexyl)methyl]-7H-purine-2-carboxylic acid], the IC50 falls from 6.28 nM to 2.09 nM (3-fold). The second is the more potent here.

Going from `COc1ccc(C)cc1-c1nc2nc(C(=O)O)nc(N[C@H](C)C3CCC3)c2n1C[C@H]1CC[C@H](C)CC1` [Example 15.13, 6-{[(1R)-1-cyclobutylethyl]amino}-8-(2-methoxy-5-methylphenyl)-7-[(trans-4-methylcyclohexyl)methyl]-7H-purine-2-carboxylic acid] to `Cc1cccc(-c2nc3nc(C(=O)O)nc(N[C@H](C)C4CCC4)c3n2C[C@H]2CC[C@H](C)CC2)c1` [Example 15.14, 6-{[(1R)-1-cyclobutylethyl]amino}-7-[(trans-4-methylcyclohexyl)methyl]-8-(3-methylphenyl)-7H-purine-2-carboxylic acid], the IC50 falls from 4.96 nM to 2.91 nM (1.7-fold). The second is the more potent here.

Compared with `C[C@@H](Nc1nc(C(=O)O)nc2nc(-c3cc(C4CCC4)ccn3)n(C[C@H]3CC[C@H](C)CC3)c12)C1CCC1` [Example 15.18, 6-{[(1R)-1-cyclobutylethyl]amino}-8-(4-cyclobutylpyridin-2-yl)-7-[(trans-4-methylcyclohexyl)methyl]-7H-purine-2-carboxylic acid], `CC(C)c1ccnc(-c2nc3nc(C(=O)O)nc(N[C@H](C)C(F)(F)F)c3n2C[C@H]2CC[C@H](C)CC2)c1` [Example 15.22, 7-[(trans-4-methylcyclohexyl)methyl]-8-[4-(1-methylethyl)pyridin-2-yl]-6-{[(1R)-2,2,2-trifluoro-1-methylethyl]amino}-7H-purine-2-carboxylic acid] is 9.9-fold higher in IC50: 1.8 nM for the first, 17.9 nM for the second. The first is the more potent here.
